Experimental findings from patent US9259482B2, “Conjugates of polymers having a therapeutically active agent and an angiogenesis targeting moiety attached thereto and uses thereof in the treatment of angiogenesis related diseases” (Ramot at Tel-Aviv University Ltd., priority 2008, dated 2016) are described below.

Series [1] relates to HUVEC. Description: cells. The class given is cell-based, human. As for the experimental part:
(§1) The anti-angiogenesis and anti-proliferative activity of the conjugates described herein was evaluated by the effect of the conjugates on the proliferation of HUVEC, U87 and PANC02 cells.
(§2) HUVEC were plated onto 24-well plate (1×10^4 cells/well) in endothelial cell basal medium 2 (EBM-2; Cambrex, USA) supplemented with 5% fetal bovine serum (FBS). Following 24 hours of incubation (37° C.; 5% CO2) medium was replaced with Endothelial cell growth medium-2 (EGM-2; Cambrex, USA). U87 and PANC02 cells were plated onto 96 well plate (2×10^3 cells/well) in DMEM supplemented with 5% FBS and incubated for 24 hours (37° C.; 5% CO2). Following 24 hours of incubation the medium was replaced with DMEM containing 10% FBS. Cells were challenged with the tested compounds at serial concentrations for 72 hours. After incubation the number of HUVEC were counted by Coulter Counter and U87, and PANC02 cells were counted by XTT respectively.

In series [2] the test system is HUVEC. Description: Endothelial cell adhesion assay on fibrinogen coated plates. The format is cell-based, human. The method, then: The ability of E-[c(RGDfk)2] and E-c(RGDfk) moieties (SEQ ID NOs: 2 and 41) in the conjugates to inhibit endothelial attachment to cellular matrix after conjugation, was assessed using an adhesion assay. Flat bottom 96-well culture plates (Nunc, Denmark) were coated with 0.5 μg/well fibrinogen overnight at 4° C. After washing three times with Phosphate buffered saline (PBS), the wells were blocked with 1% bovine serum albumin (BSA) for 1 hour at 37° C. and washed three times again with PBS. HUVEC were harvested in phosphate-buffered saline (137 mM NaCl, 2.7 mM KCl, 4.3 mM Na2HPO4, 1.4 mM KH2PO4, pH 7.3) with 2.5 mM EDTA and resuspended in EBM-2 serum-free media (Clonetics). HUVEC were incubated for 30 minutes, at room temperature, with the tested compounds. The treated HUVEC were plated at 5×10^4 cells per well and were allowed to attach for 1 hour at 37° C. After incubation, the unattached cells were removed by rinsing the wells with PBS. The attached cells were fixed with 3.7% formaldehyde, stained with 0.5% crystal violet and were imaged using Nikon TE2000E inverted microscope integrated with Nikon DS5 cooled CCD camera by 4× objective, brightfield technique. The number of attached cells was quantified with NIH ImageJ processing and analysis software. Non-specific binding was determined by adhesion of HUVEC cells, which were not incubated with any of the tested compounds, to BSA-coated plates.

Series [3] in a line: Hydrodynamic diameter by Nanoparticle Tracking Analysis. The following applies: PTX loading of 2.3 mol % and -E-c(RGDfk) loading of 5 mol %; PBS; FIG. 9C. The class given is physicochemical. The method, then: The mean hydrodynamic diameter of the PGA conjugates was evaluated using a real time particle analyzer (NanoSight LM20™) containing a solid-state, single mode laser diode (<20 mW, 655 nm) configured to launch a finely focused beam through a 500 μl sample chamber. The tested conjugate was dissolved in PBS to a final concentrations of 9.9 mg/ml. The samples were then injected into the chamber by syringe and allowed to equilibrate to a unit temperature (23° C.) for 30 seconds. The particles dynamics were visualized at 30 frames per second (fps) for 60 seconds at 640×480 resolution by the device CCD camera. The paths the particles take under Brownian motion over time were analyzed using Nanoparticle Tracking Analysis (NTA) software. […] Each sample was measured three times in triplicates, and the results represent the mean diameter.

Series [4] has as its target Cathepsin B (Homo sapiens, UniProt P07858). The experiment in a line: Release of PTX from conjugates in the presence of Cathepsin B. The class given is in vitro ADME. The method, then: The ability of Cathepsin B to cleave and therefore release PTX from PGA copolymer-E-c(RGDfk)2-PTX (SEQ ID NO:18) was assessed as follows:
Cathepsin B (5 U) was added last to a 1 ml solutions containing 3 mg of the tested conjugates and 20 mM sodium acetate, 2 mM EDTA and 5 mM DTT at a pH of 6 and at a temperature of 37° C. Solutions containing free PGA polymer and free PTX served as control. Sample aliquots (100 μl) were taken at various time points up to 72 hours, frozen and stored in liquid nitrogen, until assayed by HPLC (by Porous50 resin) and/or by Gel permeation chromatography (GPC; direct analysis of 50 μl aliquots). PGA polymer incubated in buffer alone (without addition of cathepsin B) served as an additional control to assess non-enzymatic hydrolytic cleavage. The amount of free PTX released from the tested compounds was assessed by HPLC (X=220 nm). Doxycycline was used as internal standard in all cases. In addition, an LC-MS analysis of the released compounds was also carried out to in order determine the major metabolites released. The MW of the conjugates was determined by diluting 50 μl aliquots of the conjugate containing solution to a final volume of 200 μl with PBS buffer and subjecting the aliquots to GPC analysis (Viscotek TDA detector).

Series [5] relates to HUVEC. Description: Capillary-like tube formation assay. The format is cell-based, human. The following applies: equivalent concentrations of 10 nM (PTX) and 19 nM (E-[c(RGDfk)2]); conjugate with 5 mol % E-[c(RGDfk)2], 2.6 mol % PTX; FIG. 16B. As for the experimental part:
The anti-angiogenesis activity of the conjugates was evaluated by the effect of the conjugates on the ability of HUVEC cells to form capillary-like tube structures.
The surface of 24-well plates was coated with Matrigel matrix (50 μl/well) (BD Biosciences, USA) on ice and was then allowed to polymerize at 37° C. for 30 minutes. HUVEC (3×10^4 cells) were challenged with the tested compounds, and were seeded on coated plates in the presence of complete EGM-2 medium. After 8 hours of incubation (37° C.; 5% CO2), wells were imaged using Nikon TE2000E inverted microscope integrated with Nikon DS5 cooled CCD camera by 4× objective, brightfield technique. During the tube formation assay endothelial cells directionally migrate to align, branch and form polygonal networks (i.e. tube like structures). The extent of capillary-like tube structures is inversely proportional to the anti-angiogenesis activity of the compounds.

Series [6] deals with HUVEC. The experiment in a line: Migration assay of HUVEC towards VEGF. The format is cell-based, human. The following applies: equivalent concentrations of 100 nM PTX; conjugate with 5 mol % E-[c(RGDfk)2], 2.6 mol % PTX; FIG. 14. As for the experimental part: The anti-angiogenesis activity of the conjugates was evaluated by examining the effect of the conjugates on the ability of HUVEC to migrate toward the Vascular Endothelial Growth Factor (VEGF).
Cell migration assay was performed using modified 8 μm Boyden chambers Transwells® (Costar Inc., USA) coated with 10 μg/ml fibronectin HUVEC (15×10^4 cells/100 μl) were challenged with the tested compounds that were added to the upper chamber of the transwells for 2 hours. Following incubation, cells were allowed to migrate to the underside of the chamber for 4 hours in the presence or absence of VEGF (20 ng/ml) in the lower chamber. Cells were then fixed and stained (Hema 3 Stain System; Fisher Diagnostics, USA). The stained migrated cells were imaged using Nikon TE2000E inverted microscope integrated with Nikon DS5 cooled CCD camera by 10× objective, brightfield illumination. Migrated cells from the captured images per membrane were counted using NIH image software. Migration was normalized to the percent of migration toward VEGF of HUVEC which were not incubated with any compound. The extent of migration is inversely proportional to the anti-angiogenesis activity of the compounds.

The test system of series [7] is PANC02 murine pancreatic tumor cells. Description: Cell proliferation assay, PANC02. The class given is cell-based. As for the experimental part:
as §1, §2

[8] abbreviates: HUVEC proliferation, nM PTX, FIG. 13A (5 mol % E-[c(RGDfk)2], 2.6 mol % PTX) and FIG. 13B (monocyclic), read-out: IC50, bell shaped effect, higher value.
Where [9] appears, read: HUVEC proliferation, nM PTX, FIG. 13A (5 mol % E-[c(RGDfk)2], 2.6 mol % PTX) and FIG. 13B (monocyclic), read-out: IC50, bell shaped effect, lower value.

Where two headings read alike, the source gives them in different places.

For PGA-PTX-E-c(RGDfk), the IC50 in series [1] (setting [8]) was approximately 20 nM; in series [1] (setting [9]) it was approximately 0.2 nM. Further, the “inhibition of HUVEC adhesion to fibrinogen” value in series [2] (equivalent concentrations of 50 μM RGD, FIG. 15) is approximately 50%. For the same substance, in series [3], the mean hydrodynamic diameter entry is listed as “about 35 nm”.
Take “PGA-Copolymer -E-c(RGDfk)2-Paclitaxel [PGA-PTX-E-[c(RGDfk)2]]”: the IC50 in series [1] (setting [8]) was approximately 20 nM; in series [1] (setting [9]), approximately 0.2 nM; in series [1] (HUVEC, 72 hours, bis-cyclic RGD compounds (X = 2), NA = did not reach IC50 in the concentrations used, 'a -- b' = bell-shaped curve, read-out: IC50 (nM) of PGA- PTX-E-[c(RGDfk)2] (SEQ ID NO: 18) 2.6 mol % PTX, 5 mol % RGD), 25 nM; in series [7] (PANC02, 72 hours, bis-cyclic RGD compounds (X = 2), NA = did not reach IC50 in the concentrations used, read-out: IC50 (nM) of PGA- PTX-E-[c(RGDfk)2] (SEQ ID NO: 18) 5 mol % PTX, 3.9 mol % RGD) it was 650 nM; in series [7] (nM PTX, equivalent doses, FIG. 12C, read-out: IC50 of PANC02 proliferation), approximately 650 nM. Moreover, the “PTX release kinetics compared to the other conjugates” value in series [4] (conjugate with 3.9 mol % E-[c(RGDfk)2], 5.5 mol % PTX, pH 6, 37° C.) is “slightly faster release kinetics”. The “PTX release compared with the conjugate of 2.6 mol % PTX, 5 mol % E-[c(RGDfk)2]” value in series [4] (conjugate with 5.5 mol % PTX, 3.9 mol % E-[c(RGDfk)2], after 48 hours) is “greater”. Besides, the “inhibition of the formation of tubular structures of HUVEC” value in series [5] is “about 40%”. Moreover, in series [6], the “inhibition of the migration of HUVEC towards VEGF” value is “about 40%”. Also, in series [2] (both loadings of the bis-cyclic conjugate), the “adhesion inhibition compared with the monocyclic conjugate PGA-PTX-E-c(RGDfk)” value is listed as “inhibited the adhesion more effectively than the monocyclic RGDfk peptide conjugate”. Besides, in series [2] (conjugate with 3.9 mol % E-[c(RGDfk)2] and 5.5 mol % PTX versus conjugate with 5 mol % E-[c(RGDfk)2] and 2.6 mol % PTX), the “adhesion inhibition compared with the other loading” value is recorded as “more effective than the second”.
